Reference: patent publication US20260207704A1, “STAPLED PEPTIDES AND METHODS THEREOF” (priority 2022, published 2026)
One block for each molecule: values may come before it. *1 amine or outer side, *2 acyl side, *3 side chain or, on linkers, in order; H or OH if unused. Bridges are numbered along the chain shown (N, C = ends). Primed or numbered codes have the meaning given here. [ ]: non-standard residue; d: D form. PyrS2″ = (S)-3-amino-1-((pent-4-en-1-yloxy)carbonyl)pyrrolidine-3-carboxylic acid (olefin stapling residue), C=CCCCOC(=O)N1CC[C@@](N[*:1])(C(=O)[*:2])C1; PyrS2(5) = (S)-3-amino-1-((pent-4-en-1-yloxy)carbonyl)pyrrolidine-3-carboxylic acid, C=CCCCOC(=O)N1CC[C@@](N[*:1])(C(=O)[*:2])C1; B5″ = 2-amino-2-(pent-4-en-1-yl)hept-6-enoic acid (bis-olefin stapling residue), C=CCCCC(CCCC=C)(N[*:1])C(=O)[*:2]; 2F3MeF″ = aromatic residue, Cc1cccc(C[C@H](N[*:1])C(=O)[*:2])c1F; Phe(3-COOH) = N[C@@H](Cc1cccc(C(=O)O)c1)C(=O)O; Bta = N[C@@H](Cc1csc2ccccc12)C(=O)O; Lys(iPr) = CC(C)NCCCC[C@H](N)C(=O)O; αAllylPro = C=CC[C@@]1(C(=O)O)CCCN1; tBuAla = CC(C)(C)C[C@H](N)C(=O)O; Cha = N[C@@H](CC1CCCCC1)C(=O)O; BztA″ = aromatic residue; Nle = CCCC[C@H](N)C(=O)O; GlnR = not defined here; B5 = not defined here

Columns and labels:
COLO320DM cells = experiment: COLO320DM proliferation assay; assay type: cell-based, human; settings: read-out: COLO320DM Proliferation Abs IC50
Procedure: Various technologies can be utilized to assess technologies of the present disclosure. For example, in some embodiments, solubility, LogD, interactions with targets, etc. of various agents such as stapled peptides were assessed using technologies described in WO 2022/261257 (e.g., those in its Examples). In some embodiments, solubility, shake flask LogD, and binding to beta-catenin were assessed. In some embodiments, an assay for assessing interactions, e.g., with beta-catenin, was fluorescence polarization as described in WO 2022/261257. In some embodiments, an assay was Nano-BRET target engagement assay that assessed beta-catenin/TCF4 engagement as described in WO 2022/261257. In some embodiments, an assay was a reporter assay as reported in Example 4 of WO 2022/261257. In some embodiments, an assay was a COLO320DM proliferation assay as reported in Example 4 of WO 2022/261257.
Among other things, provided technologies can inhibit proliferation of various cells including various cancer cells. In some embodiments, provided technologies modulate WNT specific transcription. In some embodiments, provided technologies induce cell cycle arrest. In some embodiments, provided technologies induce G1 cell cycle arrest. In some embodiments, provided technologies increased proportion of cells in G1 phase of cell cycle. As confirmed in FIG. 3, provided technologies can inhibit proliferation of COLO320DM, which is a colorectal cell line comprising various mutations such as APC, TP53, etc., modulate WNT specific transcription such as of AXIN2 and CXCL12, and induce G1 cell cycle arrest. In some embodiments, it was confirmed that provided technologies can reduce proportion of cells in S phase of cell cycle.

DLD1 reporter = experiment: reporter assay (DLD1 reporter assay); assay type: cell-based; settings: read-out: DLD1 4% Abs IC50; DLD1 4%
beta-catenin (human) [1] = experiment: cell-based or functional assay
Sequence of beta-catenin (human) (B6V8E6 146-665 limits assumed): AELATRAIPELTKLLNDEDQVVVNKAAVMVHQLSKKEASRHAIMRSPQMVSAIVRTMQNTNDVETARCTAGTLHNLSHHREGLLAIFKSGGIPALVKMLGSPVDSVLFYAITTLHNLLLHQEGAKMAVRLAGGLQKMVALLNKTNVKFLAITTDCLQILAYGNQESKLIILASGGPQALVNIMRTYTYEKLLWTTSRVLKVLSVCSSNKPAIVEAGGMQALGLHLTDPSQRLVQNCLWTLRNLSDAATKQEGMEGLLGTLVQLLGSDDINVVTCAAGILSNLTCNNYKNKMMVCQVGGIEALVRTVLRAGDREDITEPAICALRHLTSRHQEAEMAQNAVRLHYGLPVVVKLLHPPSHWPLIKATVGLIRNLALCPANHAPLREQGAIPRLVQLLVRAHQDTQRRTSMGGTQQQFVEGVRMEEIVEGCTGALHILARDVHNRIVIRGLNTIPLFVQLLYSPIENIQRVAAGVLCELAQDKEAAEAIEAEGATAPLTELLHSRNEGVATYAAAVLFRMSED

beta-catenin (human) [2] = experiment: fluorescence polarization; bin >200 nM

Molecule: CC(=O)N1CCC[C@]12CC=CCCCC1(CCCC=CCCCOC(=O)N3CC[C@@]4(C3)NC(=O)[C@H](CCCCNC(=O)CC[C@@H](C(=O)N3CCC[C@H]3CO)NC(=O)[C@H](Cc3csc5ccccc35)NC(=O)[C@H](Cc3ccsc3)NC4=O)NC(=O)[C@H](Cc3ccccc3)NC(=O)[C@H](C)NC(=O)[C@H](C)NC(=O)[C@H](Cc3cccc(C(=O)O)c3)NC(=O)[C@H](CC(=O)O)NC1=O)NC(=O)[C@H](CC(C)(C)C)NC(=O)[C@H](CC(=O)O)NC2=O (relative stereo) [I-64, Ac-PL3-Asp-Npg-B5-Asp-3COOHF-Ala-Ala-Phe-Lys*3-PyrS2-3Thi-BztA-GlnR*3-Prool]
IC50 (COLO320DM cells): 10 to 20 µM
IC50 (DLD1 reporter): 1 to 5 µM

Molecule: CC(=O)N1CCC[C@]12CC=CCCCC1(CCCC=CCCCOC(=O)N3CC[C@@]4(C3)NC(=O)[C@H](CCCCNC(=O)CC[C@@H](C(=O)N[C@@H](C)C(N)=O)NC(=O)[C@H](Cc3csc5ccccc35)NC(=O)[C@H](Cc3ccccc3C)NC4=O)NC(=O)[C@H](Cc3ccccc3)NC(=O)[C@H](C)NC(=O)C(C)(C)NC(=O)[C@H](Cc3cccc(C(=O)O)c3)NC(=O)[C@H](CC(=O)O)NC1=O)NC(=O)[C@H](CC(C)(C)C)NC(=O)[C@H](CC(=O)O)NC2=O (relative stereo) [I-294, Ac-PL3-Asp-Npg-B5-Asp-3COOHF-Aib-Ala-Phe-Lys*3-PyrS2-2MeF-BztA-GlnR*3-Ala-NH2]
IC50 (COLO320DM cells): ≤ 10 µM

Molecule: CC(=O)N1CCC[C@]12CC=CCCCC1(CCCC=CCCCOC(=O)N3CC[C@@]4(C3)NC(=O)[C@H](CCCCNC(=O)CC[C@@H](C(=O)N[C@@H](C)C(N)=O)NC(=O)[C@H](Cc3csc5ccccc35)NC(=O)[C@H](Cc3cccnc3)NC4=O)NC(=O)[C@H](Cc3ccccc3)NC(=O)[C@H](C)NC(=O)C(C)(C)NC(=O)[C@H](Cc3cccc(C(=O)O)c3)NC(=O)[C@H](CC(=O)O)NC1=O)NC(=O)[C@H](CC(C)(C)C)NC(=O)[C@H](CC(=O)O)NC2=O (relative stereo) [I-300, Ac-PL3-Asp-Npg-B5-Asp-3COOHF-Aib-Ala-Phe-Lys*3-PyrS2-3PyrA-BztA-GlnR*3-Ala-NH2]
IC50 (COLO320DM cells): > 20 µM

Molecule: CC(=O)N1CCC[C@]12CC=CCCCC1(CCCC=CCCCOC(=O)N3CC[C@@]4(C3)NC(=O)[C@H](CCCCNC(=O)CC[C@@H](C(=O)N[C@@H](C)C(N)=O)NC(=O)[C@H](Cc3csc5ccccc35)NC(=O)[C@H](Cc3ccsc3)NC4=O)NC(=O)[C@H](Cc3ccccc3)NC(=O)[C@H](C)NC(=O)[C@H](Cc3ccccc3)NC(=O)[C@H](Cc3cccc(C(=O)O)c3)NC(=O)[C@H](CC(=O)O)NC1=O)NC(=O)[C@H](CC(C)(C)C)NC(=O)[C@H](CC(=O)O)NC2=O (relative stereo) [I-386, Ac-PL3-Asp-Npg-B5-Asp-3COOHF-Phe-Ala-Phe-Lys*3-PyrS2-3Thi-BztA-GlnR*3-Ala-NH2]
IC50 (COLO320DM cells): > 20 µM

Molecule: CC(=O)N1CCC[C@]12CC=CCCCC1(CCCC=CCCCOC(=O)N3CC[C@@]4(C3)NC(=O)[C@H](CCCCNC(=O)CC[C@@H](C(=O)N[C@@H](C)C(N)=O)NC(=O)[C@H](Cc3csc5ccccc35)NC(=O)[C@H](Cc3ccsc3)NC4=O)NC(=O)[C@H](Cc3ccccc3)NC(=O)[C@H](C)NC(=O)C(C)(C)NC(=O)[C@H](Cc3cccc(C(=O)O)c3)NC(=O)[C@H](CC(=O)O)NC1=O)NC(=O)[C@H](C)NC(=O)[C@H](CC(=O)O)NC2=O (relative stereo) [I-304, Ac-PL3-Asp-Ala-B5-Asp-3COOHF-Aib-Ala-Phe-Lys*3-PyrS2-3Thi-BztA-GlnR*3-Ala-NH2]
IC50 (COLO320DM cells): ≤ 10 µM

Molecule: CC(=O)N1CCC[C@]12CC=CCCCC1(CCCC=CCCCOC(=O)N3CC[C@@]4(C3)NC(=O)[C@H](CCCCNC(=O)CC[C@@H](C(=O)N[C@@H](C)C(N)=O)NC(=O)[C@H](Cc3csc5ccccc35)NC(=O)[C@H](Cc3ccccn3)NC4=O)NC(=O)[C@H](Cc3ccccc3)NC(=O)[C@H](C)NC(=O)C(C)(C)NC(=O)[C@H](Cc3cccc(C(=O)O)c3)NC(=O)[C@H](CC(=O)O)NC1=O)NC(=O)[C@H](CC(C)(C)C)NC(=O)[C@H](CC(=O)O)NC2=O (relative stereo) [I-299, Ac-PL3-Asp-Npg-B5-Asp-3COOHF-Aib-Ala-Phe-Lys*3-PyrS2-2PyrA-BztA-GlnR*3-Ala-NH2]
IC50 (COLO320DM cells): 10 to 20 µM

Molecule: CC(=O)N1CCC[C@]12CC=CCCCC1(CCCC=CCCCOC(=O)N3CC[C@@]4(C3)NC(=O)[C@H](CCCCNC(=O)CC[C@@H](C(=O)N[C@@H](C)C(N)=O)NC(=O)[C@H](Cc3csc5ccccc35)NC(=O)[C@H](Cc3ccncc3)NC4=O)NC(=O)[C@H](Cc3ccccc3)NC(=O)[C@H](C)NC(=O)C(C)(C)NC(=O)[C@H](Cc3cccc(C(=O)O)c3)NC(=O)[C@H](CC(=O)O)NC1=O)NC(=O)[C@H](CC(C)(C)C)NC(=O)[C@H](CC(=O)O)NC2=O (relative stereo) [I-301, Ac-PL3-Asp-Npg-B5-Asp-3COOHF-Aib-Ala-Phe-Lys*3-PyrS2-4PyrA-BztA-GlnR*3-Ala-NH2]
IC50 (COLO320DM cells): > 20 µM

Molecule: CC(=O)N1CCC[C@@]1(C)C(=O)N[C@@H](CC(=O)O)C(=O)N[C@H](C(=O)N[C@]1(C)CCCCCCCCOC(=O)N2CC[C@@]3(C2)NC(=O)[C@H](CCCCNC(=O)CC[C@@H](C(=O)N[C@@H](C)C(N)=O)NC(=O)[C@H](Cc2csc4ccccc24)NC(=O)[C@H](Cc2ccsc2)NC3=O)NC(=O)[C@H](Cc2ccccc2)NC(=O)[C@H](C)NC(=O)C(C)(C)NC(=O)[C@H](Cc2cccc(C(=O)O)c2)NC(=O)[C@H](CC(=O)O)NC1=O)C(C)C (relative stereo) [I-237, Ac-MePro-Asp-Val-R5-Asp-3COOHF-Aib-Ala-Phe-Lys*3-PyrS2-3Thi-BztA-GlnR*3-Ala-NH2]
IC50 (COLO320DM cells): > 20 µM

Molecule: CC(=O)N1CCC[C@]12CC=CCCCC1(CCCC=CCCCOC(=O)N3CC[C@@]4(C3)NC(=O)[C@H](CCCCNC(=O)CC[C@@H](C(=O)N[C@@H](C)C(N)=O)NC(=O)[C@H](Cc3csc5ccccc35)NC(=O)[C@H](Cc3ccsc3)NC4=O)NC(=O)[C@H](Cc3ccccc3)NC(=O)[C@H](C)NC(=O)C(C)(C)NC(=O)[C@H](Cc3cccc(C(=O)O)c3)NC(=O)[C@H](CC(=O)O)NC1=O)NC(=O)[C@H](CCCN1CCOCC1)NC(=O)[C@H](CC(=O)O)NC2=O (relative stereo) [I-313, Ac-PL3-Asp-MorphNva-B5-Asp-3COOHF-Aib-Ala-Phe-Lys*3-PyrS2-3Thi-BztA-GlnR*3-Ala-NH2]
IC50 (COLO320DM cells): > 20 µM

Molecule: CCCC[C@@H]1NC(=O)[C@H](CC(=O)O)NC(=O)[C@]2(CC=CCCCC3(CCCC=CCCCOC(=O)N4CC[C@@]5(C4)NC(=O)[C@H](CCCCNC(=O)CC[C@@H](C(=O)N[C@@H](C)C(N)=O)NC(=O)[C@H](Cc4csc6ccccc46)NC(=O)[C@H](Cc4ccsc4)NC5=O)NC(=O)[C@H](Cc4ccccc4)NC(=O)[C@H](C)NC(=O)C(C)(C)NC(=O)[C@H](Cc4cccc(C(=O)O)c4)NC(=O)[C@H](CC(=O)O)NC3=O)NC1=O)CCCN2C(C)=O (relative stereo) [I-245, Ac-PL3-Asp-nLeu-B5-Asp-3COOHF-Aib-Ala-Phe-Lys*3-PyrS2-3Thi-BztA-GlnR*3-Ala-NH2]
IC50 (COLO320DM cells): ≤ 10 µM

Molecule: CC(=O)N1CCC[C@]12CC=CCCCC1(CCCC=CCCCOC(=O)N3CC[C@@]4(C3)NC(=O)[C@H](CCCCNC(=O)CC[C@@H](C(=O)N[C@@H](C)C(N)=O)NC(=O)[C@H](Cc3csc5ccccc35)NC(=O)[C@H](Cc3ccsc3)NC4=O)NC(=O)[C@H](Cc3ccccc3)NC(=O)[C@H](C)NC(=O)C(C)(C)NC(=O)[C@H](Cc3cccc(C(=O)O)c3)NC(=O)[C@H](CC(=O)O)NC1=O)NC(=O)[C@H](C1CCCCC1)NC(=O)[C@H](CC(=O)O)NC2=O (single isomer, unassigned) [I-253, Ac-PL3-Asp-Chg-B5-Asp-3COOHF-Aib-Ala-Phe-Lys*3-PyrS2-3Thi-BztA-GlnR*3-Ala-NH2]
IC50 (COLO320DM cells): ≤ 10 µM

NanoBRET Abs IC50 (beta-catenin (human) [1]): > 10 µM
IC50 (beta-catenin (human) [2]): < 0.75 µM
B1: I-143 (peptide)
peptide: Ac-[αAllylPro]N[tBuAla][B5]D[Phe(3-COOH)][Nle]AFK[PyrS2″][2F3MeF″][BztA″][GlnR]LS-NH2
modifications: bridge 10-14; not fully specified (bridges); printed as Ac-PL3-Asn-Npg-B5-Asp-3COOHF-nLeu-Ala-Phe-Lys*3-PyrS2-2F3MeF-BztA-GlnR*3-Leu-Ser-NH2; reading uncertain; also: Lys10 and GlnR14 marked *3

NanoBRET Abs IC50 (bin >3.0 uM) (beta-catenin (human) [1]): < 10 µM
IC50 (beta-catenin (human) [2]): < 0.75 µM
B2: I-142 (peptide)
peptide: Ac-[αAllylPro]N[tBuAla][B5]D[Phe(3-COOH)]AAFK[PyrS2(5)][2F3MeF″][BztA″][GlnR]LS-NH2
modifications: bridge 10-14; not fully specified (bridges); printed as Ac-PL3-Asn-Npg-B5-Asp-3COOHF-Ala-Ala-Phe-Lys*3-PyrS2-2F3MeF-BztA-GlnR*3-Leu-Ser-NH2; reading uncertain; also: Lys10 and GlnR14 marked *3

NanoBRET Abs IC50 (beta-catenin (human) [1]): > 10 µM
IC50 (beta-catenin (human) [2]): < 0.75 µM
B3: I-149 (peptide)
peptide: Ac-[αAllylPro]N[Cha][B5″]DQ[Lys(iPr)]AF[GlnR][PyrS2″]F[Bta]K-NH2
modifications: bridge 10-14; reading uncertain; also: PL3-B5 and PyrS2 links not placed, printed as Ac-PL3-Asn-Cha-B5-Asp-Gln-iPrLys-Ala-Phe-GlnR*3-PyrS2-Phe-BztA-Lys*3-NH2
